Test results from patent US9115148B2, “Spirocyclic derivatives as histone deacetylase inhibitors” (DAC S.R.L., priority 2008, dated 2015).

Assays:
[1] = tested on: HCT-116 cells; test: Cell growth, CellTiter-Glo Luminescent Cell Viability Assay, HCT-116; type: cell-based; settings: Homo sapiens, HCT116 cells, 72 h incubation, read-out: IC50 antiproliferative assay HCT116
Text: (§1) CellTiter-Glo® Luminescent Cell Viability Assay (Promega) is a homogeneous method of determining the number of viable cells in culture based on quantitation of the present ATP, which indicates the presence of metabolically active cells. The homogeneous assay procedure involves addition of a single reagent (CellTiter-Glo® Reagent) directly to the cells, which leads to cell lysis and generation of a luminescent signal proportional to the amount of the ATP and the number of cells present in culture. The assay relies on the properties of a proprietary thermostable luciferase (Ultra-Glo® recombinant luciferase), which generates a luminescent signal.
(§2) K562, A549 and HCT-116 cells, in exponential growth, were incubated for 72 h with different concentrations of the inhibitors. After 72 h, a volume of CellTiter-Glo® Reagent equal to the volume of cell culture medium was added. The content was mixed for 2 min to induce cell lysis. The luminescence was recorded after further 10 min at RT in order to obtain a stabilized luminescent signal.
(§3) The IC50 was calculated using GraphPad Software.
(§4) IC50 results were allocated to one of 3 ranges as follows: Range A: IC50≦1.0 μM; Range B: from 1.0 to 3.0 μM; Range C: IC50≧3.0 μM.

[2] = tested on: K562 cells; test: Cell growth, CellTiter-Glo Luminescent Cell Viability Assay, K562; type: cell-based; settings: Homo sapiens, 72 h incubation, read-out: IC50 antiproliferative assay K562
Text: as §1, §2, §3, §4

[3] = tested on: A549 cells; test: Cell growth, CellTiter-Glo Luminescent Cell Viability Assay, A549; type: cell-based; settings: Homo sapiens, 72 h incubation, read-out: IC50 antiproliferative assay A549
Text: as §1, §2, §3, §4

[4] = tested on: HDAC (nuclear fraction of Hela cells); test: Assay of enzyme inhibition of HDAC (BIOMOL Kit); type: biochemical; settings: substrate 200 μM, 15 min at RT
Description: 2.2 Assay of Enzyme Inhibition of HDAC
The in-vitro activity of HDAC inhibitors was assayed using a BIOMOL Kit, according to the instructions from the manufacturer (Biomolecular Research Laborator). 15 μl of 30× diluted nuclear fraction of Hela cells, was diluted to 50 μl with the assay buffer containing the HDAC inhibitor and the substrate (lysine with acetylated amino group on the side chain) at a concentration of 200 μM. The samples were incubated for 15 min at RT and then exposed to a developer (10 min at RT). In this last step a fluorophore was produced, whose fluorescence was measured using an excitation wavelength of 355 nm and an emission at 460 nm. The IC50 was calculated using GraphPad Software.

| IC50 [1] [nM] | IC50 [2] [nM] | IC50 [3] [nM] | IC50 [4] [nM] | SMILES |
| --- | --- | --- | --- | --- |
| 1000 to 3000 | 1000 to 3000 | ≥ 3000 | 100 to 1000 | O=C(/C=C/c1ccc2c(c1)C(=O)CC1(CCN(S(=O)(=O)c3ccccc3)CC1)O2)NO [Example 44, (E)-3-{1′-Phenylsulfonyl-4-oxo-spiro[chromane-2,4′-piperidine]-6-yl}-N-hydroxy-acrylamide] |
| 1000 to 3000 | 1000 to 3000 | 1000 to 3000 | > 1000 | O=C(/C=C/c1ccc2c(c1)C(=NOCc1ccccc1)CC1(CCN(Cc3ccccc3)CC1)O2)NO (racemic) [Example 17, (E)-3-{1′-Benzyl-4-benzyloxyimino-spiro[chromane-2,4′-piperidine]-6-yl}-N-hydroxy-acrylamide] |
| ≤ 1000 | ≤ 1000 | 1000 to 3000 | 100 to 1000 | O=C(/C=C/c1ccc2c(c1)C(=O)CC1(CCN(Cc3ccccc3F)CC1)O2)NO [Example 34, (E)-3-{1′-(2-Fluoro-benzyl)-4-oxo-spiro[chromane-2,4′-piperidine]-6-yl}-N-hydroxy-acrylamide] |
| 1000 to 3000 | 1000 to 3000 | 1000 to 3000 | 100 to 1000 | O=C(/C=C/c1ccc2c(c1)C(=O)N(Cc1ccccc1)C1(CCN(CCc3ccccc3)CC1)O2)NO [Example 84, (E)-3-{1′-(2-Phenyl-ethyl)-3,4-dihydro-3-benzyl-4-oxo-spiro[2H-(1,3)-benzoxazine-2,4′-piperidin]-6-yl}-N-hydroxy-acrylamide] |
| 1000 to 3000 | 1000 to 3000 | 1000 to 3000 | 100 to 1000 | Cn1c(CN2CCC3(CC2)CC(=O)c2cc(/C=C/C(=O)NO)ccc2O3)cc2ccccc21 [Example 64, (E)-3-{1′-(1-Methyl-1H-indol-2-ylmethyl)-4-oxo-spiro[chromane-2,4′-piperidine]-6-yl}-N-hydroxy-acrylamide] |
| ≥ 3000 | ≥ 3000 | ≥ 3000 | < 100 | O=C(/C=C/c1ccc2c(c1)C(=O)NC1(CCNCC1)O2)NO [Example 72, (E)-3-{3,4-Dihydro-4-oxo-spiro[2H-(1,3)-benzoxazine-2,4′-piperidin]-6-yl}-N-hydroxy-acrylamide] |
| ≥ 3000 | ≥ 3000 | ≥ 3000 | > 1000 | O=C(/C=C/c1ccc2c(c1)OC1(CCNCC1)CC2=O)NO [Example 8, (E)-3-{4-oxo-spiro[chromane-2,4′-piperidine]-7-yl}-N-hydroxy-acrylamide] |
| 1000 to 3000 | 1000 to 3000 | 1000 to 3000 | 100 to 1000 | O=C(/C=C/c1ccc2c(c1)C(=O)CC1(CCN(Cc3ccccc3Cl)CC1)O2)NO [Example 37, (E)-3-{1′-(2-Chloro-benzyl)-4-oxo-spiro[chromane-2,4′-piperidine]-6-yl}-N-hydroxy-acrylamide] |
| ≤ 1000 | ≤ 1000 | 1000 to 3000 | 100 to 1000 | CN1C(=O)c2cc(/C=C/C(=O)NO)ccc2OC12CCN(Cc1ccc(F)cc1)CC2 [Example 75, (E)-3-{1′-(4-Fluoro-benzyl)-3,4-dihydro-3-methyl-4-oxo-spiro[2H-(1,3)-benzoxazine-2,4′-piperidin]-6-yl}-N-hydroxy-acrylamide] |
| ≤ 1000 | 1000 to 3000 | 1000 to 3000 | 100 to 1000 | O=C(/C=C/c1ccc2c(c1)C(=O)CC1(CCN(Cc3ccncc3)CC1)O2)NO [Example 42, (E)-3-{1′-(Pyridin-4-ylmethyl)-4-oxo-spiro[chromane-2,4′-piperidine]-6-yl}-N-hydroxy-acrylamide] |
| ≤ 1000 | ≤ 1000 | ≤ 1000 | < 100 | O=C(/C=C/c1ccc2c(c1)C(=O)CC1(CCN(Cc3c[nH]c4ccc(F)cc34)CC1)O2)NO [Example 54, (E)-3-{1′-(5-Fluoro-1H-indol-3-ylmethyl)-4-oxo-spiro[chromane-2,4′-piperidine]-6-yl}-N-hydroxy-acrylamide] |
| ≤ 1000 | 1000 to 3000 | 1000 to 3000 | < 100 | CN1CCC2(CC1)NC(=O)c1cc(/C=C/C(=O)NO)ccc1O2 [Example 73, (E)-3-{1′-Methyl-3,4-dihydro-4-oxo-spiro[2H-(1,3)-benzoxazine-2,4′-piperidin]-6-yl}-N-hydroxy-acrylamide] |
| ≤ 1000 | ≤ 1000 | 1000 to 3000 | 100 to 1000 | O=C(/C=C/c1ccc2c(c1)C(=O)CC1(CCN(CCCc3ccccc3)CC1)O2)NO [Example 45, (E)-3-{1′-(3-Phenyl-propyl)-4-oxo-spiro[chromane-2,4′-piperidine]-6-yl}-N-hydroxy-acrylamide] |
| ≤ 1000 | ≤ 1000 | ≤ 1000 | 100 to 1000 | O=C(/C=C/c1ccc2c(c1)C(=O)CC1(CCN(CCc3ccc(Cl)cc3)CC1)O2)NO [Example 57, (E)-3-{1′-[2-(4-Chloro-phenyl)-ethyl]-4-oxo-spiro[chromane-2,4′-piperidine]-6-yl}-N-hydroxy-acrylamide] |
| ≥ 3000 | ≥ 3000 | ≥ 3000 | > 1000 | O=C(/C=C/c1ccc2c(c1)C=CC1(CCN(Cc3ccccc3)CC1)O2)NO [Example 15, (E)-3-{1′-Benzyl-spiro[chromene-2,4′-piperidine]-6-yl}-N-hydroxy-acrylamide] |
| ≥ 3000 | ≥ 3000 | ≥ 3000 | > 1000 | CC(=O)N1CCC2(CC1)Oc1ccc(/C=C/C(=O)NO)cc1C2=O [Example 22, (E)-3-{1′-Acetyl-3-oxo-spiro[benzofuran-2(3H), 4′-piperidin]-5-yl}-N-hydroxy-acrylamide] |
| 1000 to 3000 | 1000 to 3000 | 1000 to 3000 | 100 to 1000 | O=C(/C=C/c1ccc2c(c1)C(=O)N(Cc1ccccc1)C1(CCN(Cc3ccccc3)CC1)O2)NO [Example 80, (E)-3-{1′-Benzyl-3,4-dihydro-3-benzyl-4-oxo-spiro[2H-(1,3)-benzoxazine-2,4′-piperidin]-6-yl}-N-hydroxy-acrylamide] |
| ≤ 1000 | ≤ 1000 | ≤ 1000 | < 100 | O=C(/C=C/c1ccc2c(c1)C(=O)CC1(CCN(CCc3ccc(F)cc3)CC1)O2)NO [Example 56, (E)-3-{1′-[2-(4-Fluoro-phenyl)-ethyl]-4-oxo-spiro[chromane-2,4′-piperidine]-6-yl}-N-hydroxy-acrylamide] |
| ≥ 3000 | 1000 to 3000 | ≥ 3000 | > 1000 | CCOC(=O)N1CCC2(CC1)Oc1ccc(/C=C/C(=O)NO)cc1C2=O [Example 24, (E)-3-{1′-Ethyloxycarbonyl-3-oxo-spiro[benzofuran-2(3H), 4′-piperidin]-5-yl}-N-hydroxy-acrylamide] |
| ≥ 3000 | ≥ 3000 | ≥ 3000 | 100 to 1000 | CN1C(=O)c2cc(/C=C/C(=O)NO)ccc2OC12CCNCC2 [Example 79, (E)-3-{3,4-Dihydro-3-methyl-4-oxo-spiro[2H-(1,3)-benzoxazine-2,4′-piperidin]-6-yl}-N-hydroxy-acrylamide] |
| 1000 to 3000 | ≤ 1000 | 1000 to 3000 | 100 to 1000 | CN1C(=O)c2cc(/C=C/C(=O)NO)ccc2OC12CCN(CCc1ccccc1)CC2 [Example 77, (E)-3-{1′-(2-Phenyl-ethyl)-3,4-dihydro-3-methyl-4-oxo-spiro[2H-(1,3)-benzoxazine-2,4′-piperidin]-6-yl}-N-hydroxy-acrylamide] |
| ≤ 1000 | ≤ 1000 | ≤ 1000 | < 100 | CCN1CCC2(CC1)CC(=O)c1cc(/C=C/C(=O)NO)ccc1O2 [Example 68, (E)-3-{1′-Ethyl-4-oxo-spiro[chromane-2,4′-piperidine]-6-yl}-N-hydroxy-acrylamide] |
| 1000 to 3000 | 1000 to 3000 | ≥ 3000 | 100 to 1000 | O=C(/C=C/c1ccc2c(c1)C(=O)N(Cc1ccccc1)C1(CCN(Cc3ccc(F)cc3)CC1)O2)NO [Example 83, (E)-3-{1′-(4-Fluoro-benzyl)-3,4-dihydro-3-benzyl-4-oxo-spiro[2H-(1,3)-benzoxazine-2,4′-piperidin]-6-yl}-N-hydroxy-acrylamide] |
| 1000 to 3000 | ≤ 1000 | 1000 to 3000 | 100 to 1000 | O=C(/C=C/c1ccc2c(c1)C(=O)CC1(CCN(Cc3cccc(Cl)c3)CC1)O2)NO [Example 38, (E)-3-{1′-(3-Chloro-benzyl)-4-oxo-spiro[chromane-2,4′-piperidine]-6-yl}-N-hydroxy-acrylamide] |
